Test [1] has as its system two-spotted mite (Tetranychus urticae Koch). Description: Mite Foliage Spray Test. Particulars: 500 ppm, six days. Also on record: key: A: excellent control; B: partial control; C: no control. It is filed as in vivo. As for the experimental part: (§1) Suspensions of the test compounds were prepared by dissolving one gram of compound in 50 milliliters of acetone in which had been dissolved 0.1 gram (10 percent of the weight of compound) of an alkylphenoxy polyethoxyethanol surfactant, as an emulsifying or dispersing agent. The resulting solution was mixed into 150 milliliters of water to give roughly 200 milliliters of a suspension containing the compound in finely divided form. The thus-prepared stock suspension contained 0.5 percent by weight of compound. The test concentrations in parts per million by weight employed in the tests described hereinbelow were obtained by appropriate dilutions of the stock suspension with water. The test procedures were as follows:
Adults and nymphal stages of the two-spotted mite (Tetranychus urticae Koch), reared on Tendergreen bean plants at 80±5 percent relative humidity, were the test organisms. Infested leaves from a stock culture were placed on the primary leaves of two bean plants six to eight inches in height, growing in a two-and-a-half inch clay pot. 150-200 Mites, a sufficient number for testing, transferred from the excised leaves to the fresh plants in a period of twenty four hours. Following the twenty four hour transfer period, the excised leaves were removed from the infested plants. The test compounds were formulated by diluting the stock suspension with water to give a suspension containing 500 parts of test compound per million parts of final formulation. The potted plants (one pot per compound) were placed on a revolving turntable and sprayed with 100-110 milliliters of test compound formulation by use of a DeVilbiss spray gun set at 40 psig. air pressure. This application, which lasted 25 seconds, was sufficient to wet the plants to run-off. As a control, 100-110 milliliters of a water solution containing acetone and emulsifier in the same concentrations as the test compound formulation, but containing no test compound, were also sprayed on infested plants. The sprayed plants were held at 80±5 percent relative humidity for six days, after which a mortality count of motile forms was made. Microscopic examination for motile forms was made on the leaves of the test plants. Any individual which was capable of locomotion upon prodding was considered living.
(§2) In these tests the pesticidal activity of the compounds against aphid, mite, Southern Armyworm, Bean Beetle and house fly was rated as follows: […]

Test [2] relates to bean aphid (Aphis fabae Scop.). Description: Bean Aphid Foliage Spray Test. It is filed as in vivo. Set-up: key: A: excellent control; B: partial control; C: no control. Particulars: 500 ppm, 24 hour holding period. As for the experimental part: as §1
Adults and nymphal stages of the bean aphid (Aphis fabae Scop.) reared on potted dwarf nasturtium plants at 65°-70° F. and 50-70 percent relative humidity, constituted the test insects. For testing purposes, the number of aphids per pot was standardized to 100-150 by trimming plants containing excess aphids.
The test compounds were formulated by diluting the stock suspension with water to give a suspension containing 500 parts of test compound per million parts of final formulation.
The potted plants (one pot per compound tested) infested with 100-150 aphids, were placed on a revolving turntable and sprayed with 100-110 milliliters of test compound formulation by use of a DeVilbiss spray gun set at 40 psig. air pressure. This application, which tested 25 seconds, was sufficient to wet the plants to run-off. As a control, 100-110 milliliters of a water-acetone-emulsifier solution containing no test compound were also sprayed on infested plants. After spraying, the pots were placed on their sides on a sheet of white standard mimeograph paper which had been previously ruled to facilitate counting. Temperature and humidity in the test room during the 24 hour holding period were 65°-70° F. and 50-70 percent, respectively. Aphids which fell onto the paper and were unable to remain standing after being uprighted were considered dead. Aphids remaining on the plants were observed closely for movement and those which were unable to move the length of the body upon stimulation by prodding were considered dead. Percent mortality was recorded for various concentration levels.
as §2

For the molecule `CN(SSN(C)C(=O)ON=C1CSCCS1)C(=O)ON=C1CSCCS1` [N,N'-Bis-[1,4-Dithiane-2-O-(N-methylcarbamoyl)oximino]disulfide], the “2-Spotted Mite control rating” value in test [1] is “A”. Besides, the “Bean Aphid control rating” value in test [2] is reported as “A”.

With `CC(=NOC(=O)N(C)SSN(C)C(=O)ON=C(C)SCCC#N)SCCC#N` [N,N'-Bis-[1-(2-Cyanoethylthio)acetaldehyde O-(N-methylcarbamoyl)oxime]disulfide], the “2-Spotted Mite control rating” value in test [1] is “A”. The “Bean Aphid control rating” value in test [2] is on record as “A”.

Consider `CSC(C)=NOC(=O)N(C)SSN(C)C(=O)ON=C(C)SC` [N,N'-Bis-[1-Methylthioacetaldehyde O-(N-methylcarbamoyl)oxime]disulfide], for which, in test [1], the “2-Spotted Mite control rating” value is “C”. In addition, the “Bean Aphid control rating” value in test [2] is reported as “A”.
